Laboratory results from patent US7199118B2, “Benzothiazine derivatives, their preparation and use” (NeuroSearch A/S, priority 2001, dated 2007).

Assays:
AMPA receptor = experiment: Electrophysiological whole cell patch clamp experiments: potentiation of AMPA-induced current; assay type: cell-based, mouse; settings: for concentration dependence of the potentiating effect: Compound 23a at 10, 30 and 100 μM, Compound 27a at 0.1-100 μM, 30 μM AMPA; for effect on the current induced by application of 30 μM AMPA: cultured mouse neocortical neurons, voltage clamp -60 mV, AMPA 30 μM for 1 second every 45 seconds, test concentrations per FIGS. 2-8 (Cpd 21 15 μM; 22, 24, 25 10 μM; 23a 10-100 μM; 26 3 μM; 27a 0.1-100 μM)
Experimental: Electrophysiological Patch Clamp Experiments
Experiments were performed in voltage clamp using conventional whole cell patch clamp methods (see Hamill O P, Marty A, Neher E, Sakmann B & Sigworth F J: Improved patch-clamp techniques for high-resolution current recording from cells and cell-free membrane patches; Pflügers Arch. 1981 39 85–100), essentially as described Mathiesen et al. (Mathiesen C, Varming T & Jensen L H: In vivo and in vitro evaluation of AMPA receptor antagonists in rat hippocampal neurones and cultured mouse cortical neurons; Eur. J. Pharmacol. 1998 353 159–167).
The following salt solutions were used (mM): NaCl (140), KCl (4), CaCl2 (2), MgCl2 (1), Sucrose (30; Available from Fluka Chemie, Buchs, Switzerland), Tetrodotoxin (0.0003; Available from Alomone Labs, Jerusalem, Israel), Bicuculline Methiodide (0.005; Available from RBI, MA, USA) and HEPES (10, pH 7.4).
Intracellular solution (mM): CsCl (120), CsF (20), MgCl2 (2), EGTA (10), ATP (4), HEPES (10, pH=7.2).
Cell cultures: Mouse neocortical neurons were cultured essentially as described by Drejer et al. (Drejer J, Honoré T & Schousboe A: Excitatory amino acid-induced release of ^3H-GABA from cultured mouse cerebral cortex interneurons; J. Neurosci. 1987 7 2910–2916).
Briefly, the forebrains from embryonic (E17) NMRI mice were removed under sterile conditions. Pregnant (9 days) NMRI mice were obtained from Bomholtgaard Breeding and Research Center, Ry, Denmark. The tissue was chopped in 0.4 mm cubes and the triturated with trypsin (12.5 μg/ml) and DNAse (2.5 μg/ml), 15 minutes, 37° C. The cells were suspended at a concentration of 1×10^6 cells/ml in a slightly modified DMEM containing horse serum (10% (v/v)), penicillin (333 U/ml), paraaminobenzoic acid (1 μg/ml), L-glutamine (0.5 mM), insulin (0.08 U/ml) and KCl (23.8 mM). Horse serum, N2 supplement and culture media were purchased from Life Technologies (GIBCO), Roskilde, Denmark.
The cell suspension was subsequently inoculated into poly-L-lysine coated 35 mm Petri dishes (2 ml/dish). Glass coverslips (3.5 mm) were placed in the dishes before coating. After 24 hours in culture, the medium was replaced by freshly made medium containing 1% N2 supplement instead of serum.
The cells were kept in culture for 7–14 days at 37° C. (5% CO2/95% O2) before experiments were carried out.
Electronics, programs and data acquisition: The amplifier used was the EPC-9 (HEKA-electronics, Lambrect, Germany) run by a Power Macintosh G3 computer via an ITC-16 interface. Experimental conditions were set with the Pulse-software accompanying the amplifier. Data were low pass filtered and sampled directly to hard-disk at a rate of 3 times the cut-off frequency.
Pipettes and electrodes: Pipettes were pulled from borosilicate glass (Modulohm, Copenhagen, Denmark) using a horizontal electrode puller (Zeitz-Instrumente, Augsburg, Germany). The pipette resistances were 1.7–2.4 MΩ in the salt solutions used in these experiments. The pipette electrode was a chloridized silver wire, and the reference was a silverchloride pellet electrode (In Vivo Metric, Healdsburg, USA) fixed to the experimental chamber. The electrodes were zeroed with the open pipette in the bath just prior to sealing.
Experimental procedure: Coverslips were transferred to a 15 μl experimental chamber mounted on the stage of an inverted microscope (IMT-2, Olympus) supplied with Nomarski optics. The neurons were continuously superfused with extracellular saline at a rate of 2.5 ml/min. After giga-seal formation (1–5 GΩ, success-rate≈90%) the whole cell configuration was attained by suction.
The cells were held at a holding voltage of −60 mV, and at the start of each experiment the current was continuously measured for at least 30 seconds to ensure a stable leak current.
AMPA-containing solutions were delivered to the chamber through a custom-made gravity-driven flowpipe, the tip of which was placed approximately 50 μm from the cell. […]

Row | Compound | melting point | concentration dependence of the potentiating effect (AMPA receptor) | effect on the current induced by application of 30 μM AMPA (AMPA receptor)
1 | CN1CCN(S(=O)(=O)c2ccc3c(c2)S(=O)(=O)NC(C2CCCC2)C3)CC1.Cl (racemic) | 234 to 236 °C |  | 
2 | Cc1cc2c(cc1S(=O)(=O)N1CCN(C)CC1)S(=O)(=O)NC(C1CCCC1)C2 (racemic) [Compound 27a, (3RS)-3-Cyclopentyl-6-methyl-7-(4-methyl-piperazine-1-sulfonyl)-3,4-dihydro-2H-benzo[e][1,2]thiazine-1,1-dioxide] |  | concentration-dependent | potentiate the current induced by application of 30 μM AMPA
3 | CN1CCN(S(=O)(=O)c2ccc3c(c2)S(=O)(=O)NC(C2CCCC2)C3)CC1 (racemic) [Compound 23a, (3RS)-3-Cyclopentyl-7-(4-methyl-piperazine-1-sulfonyl)-3,4-dihydro-2H-benzo[e][1,2]thiazine-1,1-dioxide] |  | concentration-dependent | potentiate the current induced by application of 30 μM AMPA
4 | Cc1cc2c(cc1S(=O)(=O)N1CCCCC1)S(=O)(=O)NC(C1CCCC1)C2 (racemic) [Compound 25, (3RS)-3-Cyclopentyl-6-methyl-7-(piperidine-1-sulfonyl)-3,4-dihydro-2H-benzo[e][1,2]thiazine-1,1-dioxide] |  |  | potentiate the current induced by application of 30 μM AMPA
5 | O=S1(=O)NC(C2CCCC2)Cc2ccc(S(=O)(=O)N3CCCCC3)cc21 (racemic) [Compound 22, (3RS)-3-Cyclopentyl-7-(piperidine-1-sulfonyl)-3,4-dihydro-2H-benzo[e][1,2]thiazine-1,1-dioxide] |  |  | potentiate the current induced by application of 30 μM AMPA
6 | O=S1(=O)NC(C2CCCCC2)Cc2ccc(S(=O)(=O)N3CCCCC3)cc21 (racemic) [Compound 21, (3RS)-3-Cyclohexyl-7-(piperidine-1-sulfonyl)-3,4-dihydro-2H-benzo[e][1,2]thiazine-1,1-dioxide] |  |  | potentiate the current induced by application of 30 μM AMPA
7 | Cc1cc2c(cc1S(=O)(=O)N1CCOCC1)S(=O)(=O)NC(C1CCCC1)C2 (racemic) [Compound 26, (3RS)-3-Cyclopentyl-6-methyl-7-(morpholine-4-sulfonyl)-3,4-dihydro-2H-benzo[e][1,2]thiazine-1,1-dioxide] |  |  | potentiate the current induced by application of 30 μM AMPA
8 | Cc1cc2c(cc1S(=O)(=O)N1CCN(C)CC1)S(=O)(=O)NC(C1CCCC1)C2.Cl (racemic) | 251 °C (dec.) |  | 
9 | CN1CCN(S(=O)(=O)c2ccc3c(c2)S(=O)(=O)NC(C2CCCCC2)C3)CC1 (racemic) [Compound 24, (3RS)-3-Cyclohexyl-7-(4-methyl-piperazine-1-sulfonyl)-3,4-dihydro-2H-benzo[e][1,2]thiazine-1,1-dioxide] |  |  | potentiate the current induced by application of 30 μM AMPA
